Experimental data reported in patent US20250179066A1, “ZWITTERIONIC ANTIBACTERIAL COMPOUNDS” (Hoffmann-La Roche Inc., priority 2022, published 2025).
Counter-ions that a name gives are not always drawn.

Each compound was assayed on Acinetobacter baumannii ATCC17961 (assay: Antimicrobial susceptibility testing: 90% growth inhibitory concentration (IC90) determination). Settings: 90% growth inhibitory concentration against Acinetobacter baumannii ATCC17961, Iso-Sensitest broth, OD 600 nm over 16 h; read-out: ATCC 17961 IC90.
Type: cell-based
How it was run: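 OD600 monitored each minute over 16 h at 35±2° C for bacteria (~5×10^5 CFU/mL final) in Iso-Sensitest medium with 10-point twofold compound series (e.g. 10-0.0195 μM final). Concentration giving 90% growth inhibition in log phase reported as IC90.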
With `Cn1c(-c2cn(-c3ccc(NCCN)cn3)nc2C(F)(F)F)cnc1C(=O)Nc1ccc(C(=O)N2CCN(C(=O)[C@H]3CC[N@+](CC(=O)O)(CC4CNC4)CC3)CC2)c(Cl)c1` [Example 10, cis-2-[4-[4-[4-[[5-[1-[5-(2-Aminoethylamino)-2-pyridyl]-3-(trifluoromethyl)pyrazol-4-yl]-1-methyl-imidazole-2-carbonyl]amino]-2-chloro-benzoyl]piperazine-1-carbonyl]-1-(azetidin-3-ylmethyl)piperidin-1-ium-1-yl]acetic Acid.1:1 2,2,2-trifluoroacetic Acid.1:1 2,2,2-trifluoroacetate] the IC90 was 170 nM.

Same assay, conditions: Acinetobacter baumannii, ATCC17961, 16 h, 90% growth inhibitory concentration against Acinetobacter baumannii ATCC17961, Iso-Sensitest broth, OD 600 nm over 16 h; read-out: ATCC 17961 IC90
`Cn1c(-c2cn(-c3ccc4[nH]c(CO)cc4n3)nc2C(F)(F)F)cnc1C(=O)Nc1ccc(C(=O)N2CCN(C(=O)[C@H]3CC[N@+](CC(=O)O)(CC4CNC4)CC3)CC2)c(F)c1` [Example 151, cis-2-[1-(azetidin-3-ylmethyl)-4-[4-[2-fluoro-4-[[1-methyl-5-[1-(2-methylol-1H-pyrrolo[3,2-b]pyridin-5-yl)-3-(trifluoromethyl)pyrazol-4-yl]imidazole-2-carbonyl]amino]benzoyl]piperazine-1-carbonyl]piperidin-1-ium-1-yl]acetic acid. 1:1 2,2,2-trifluoroacetate] showed an IC90 of 403 nM.
`Cn1c(-c2cn(-c3ccc(N)cn3)nc2C(F)(F)F)cnc1C(=O)Nc1ccc(C(=O)N2CCN(C(=O)CCC[N+](C)(CCCN)CC(=O)O)CC2)c(Cl)c1` (racemic) [Example 65, rac-3-aminopropyl-[4-[4-[4-[[5-[1-(5-amino-2-pyridyl)-3-(trifluoromethyl)pyrazol-4-yl]-1-methyl-imidazole-2-carbonyl]amino]-2-chloro-benzoyl]piperazino]-4-keto-butyl]-(carboxymethyl)-methyl-ammonium. 1:1 2,2,2-trifluoroacetate] gave an IC90 of 720 nM.
Work on `Cn1c(-c2cn(-c3ncc4[nH]ccc4n3)nc2C(F)(F)F)cnc1C(=O)Nc1ccc(C(=O)N2CCN(C(=O)[C@H]3CC[N@+](CC(=O)O)(CC4CNC4)CC3)CC2)c(Cl)c1` [Example 165, cis-2-[1-(azetidin-3-ylmethyl)-4-[4-[2-chloro-4-[[1-methyl-5-[1-(5H-pyrrolo[3,2-d]pyrimidin-2-yl)-3-(trifluoromethyl)pyrazol-4-yl]imidazole-2-carbonyl]amino]benzoyl]piperazine-1-carbonyl]piperidin-1-ium-1-yl]acetic acid;formate] yielded an IC90 of 649 nM.
Work on `Cn1c(-c2cn(-c3ccc(N)cc3F)nc2C(F)(F)F)cnc1C(=O)Nc1ccc(C(=O)N2CCN(C(=O)C3CC[N+](CC(=O)O)(CC4CNC4)CC3)CC2)c(Cl)c1` (centres unmarked) [Example 17, 2-[4-[4-[4-[[5-[1-(4-amino-2-fluoro-phenyl)-3-(trifluoromethyl)pyrazol-4-yl]-1-methyl-imidazole-2-carbonyl]amino]-2-chloro-benzoyl]piperazine-1-carbonyl]-1-(azetidin-3-ylmethyl)piperidin-1-ium-1-yl]acetic acid. 1:1 2,2,2-trifluoroacetate] yielded an IC90 of 240 nM.
`Cn1c(-c2cn(-c3ccc4[nH]c(CO)cc4n3)nc2C(F)(F)F)cnc1C(=O)Nc1ccc(C(=O)N2CCN(C(=O)[C@H]3CC[N@@+](CCCN)(CC(=O)O)CC3)CC2)c(Cl)c1` [Example 171, cis-2-[1-(3-aminopropyl)-4-[4-[2-chloro-4-[[1-methyl-5-[1-(2-methylol-1H-pyrrolo[3,2-b]pyridin-5-yl)-3-(trifluoromethyl)pyrazol-4-yl]imidazole-2-carbonyl]amino]benzoyl]piperazine-1-carbonyl]piperidin-1-ium-1-yl]acetic acid. 1:1 2,2,2-trifluoroacetate] gave an IC90 of 281 nM.
For `Cn1c(-c2cn(-c3ccc(N)cn3)nc2C(F)(F)F)cnc1C(=O)Nc1ccc(C(=O)N2CCN(C(=O)C3CC[N+](CC(=O)O)(CC4CNC4)CC3)CC23CC3)c(Cl)c1` (centres unmarked) [Example 93, 2-[4-[4-[4-[[5-[1-(5-amino-2-pyridyl)-3-(trifluoromethyl)pyrazol-4-yl]-1-methyl-imidazole-2-carbonyl]amino]-2-chloro-benzoyl]-4,7-diazaspiro[2.5]octane-7-carbonyl]-1-(azetidin-3-ylmethyl)piperidin-1-ium-1-yl]acetic acid. 1:1 formate], the IC90 was 1660 nM.
Compound `Cn1c(-c2cn(-c3ccc(NC4CC4)cn3)nc2C(F)(F)F)cnc1C(=O)Nc1ccc(C(=O)N2CCN(C(=O)C3CC[N+](CC(=O)O)(CC4CNC4)CC3)CC2)c(Cl)c1` (centres unmarked) [Example 44, 2-[1-(azetidin-3-ylmethyl)-4-[4-[2-chloro-4-[[5-[1-[5-(cyclopropylamino)-2-pyridyl]-3-(trifluoromethyl)pyrazol-4-yl]-1-methyl-imidazole-2-carbonyl]amino]benzoyl]piperazine-1-carbonyl]piperidin-1-ium-1-yl]acetic acid. 1:1 formate] has an IC90 of 490 nM.
`CNc1ccc(-n2cc(-c3cnc(C(=O)Nc4ccc(C(=O)N5CCN(C(=O)C6CC[N+](CC(=O)O)(CC7CNC7)CC6)CC5)c(Cl)c4)n3C)c(C(F)(F)F)n2)nc1` (centres unmarked) [Example 25, 2-[1-(azetidin-3-ylmethyl)-4-[4-[2-chloro-4-[[1-methyl-5-[1-[5-(methylamino)-2-pyridyl]-3-(trifluoromethyl)pyrazol-4-yl]imidazole-2-carbonyl]amino]benzoyl]piperazine-1-carbonyl]piperidin-1-ium-1-yl]acetic acid. 1:1 formate] gave an IC90 of 350 nM.
In the case of `Cn1c(-c2cn(-c3ccc(N)cn3)nc2C(F)(F)F)cnc1C(=O)Nc1ccc(C(=O)N2CCN(C(=O)C[C@H](N)C(=O)O)CC2)c(Cl)c1` [Example 83, (2S)-2-amino-4-[4-[4-[[5-[1-(5-amino-2-pyridyl)-3-(trifluoromethyl)pyrazol-4-yl]-1-methyl-imidazole-2-carbonyl]amino]-2-chloro-benzoyl]piperazino]-4-keto-butyric acid. 1:1 2,2,2-trifluoroacetic acid], the IC90 is reported as 1240 nM.
With `Cn1c(-c2cn(-c3ccc4[nH]c([C@H](O)CO)cc4n3)nc2C(F)(F)F)cnc1C(=O)Nc1ccc(C(=O)N2CCN(C(=O)[C@H]3CC[N@+](CC(=O)O)(CC4CNC4)CC3)CC2)c(Cl)c1` [Example 105, cis-2-[1-(azetidin-3-ylmethyl)-4-[4-[2-chloro-4-[[5-[1-[2-[(1S)-1,2-dihydroxyethyl]-1H-pyrrolo[3,2-b]pyridin-5-yl]-3-(trifluoromethyl)pyrazol-4-yl]-1-methyl-imidazole-2-carbonyl]amino]benzoyl]piperazine-1-carbonyl]piperidin-1-ium-1-yl]acetic acid;2,2,2-trifluoroacetate] the IC90 was 525 nM.
`Cn1c(-c2cn(-c3cc4[nH]c(C(=O)N5CCOC(F)(F)C5)cc4cn3)nc2C(F)(F)F)cnc1C(=O)Nc1ccc(C(=O)N2CCN(C(=O)[C@H]3CC[N@+](CC(=O)O)(CC4CNC4)CC3)CC2)c(Cl)c1` [Example 119, cis-2-[1-(azetidin-3-ylmethyl)-4-[4-[2-chloro-4-[[5-[1-[2-(2,2-difluoromorpholine-4-carbonyl)-1H-pyrrolo[3,2-c]pyridin-6-yl]-3-(trifluoromethyl)pyrazol-4-yl]-1-methyl-imidazole-2-carbonyl]amino]benzoyl]piperazine-1-carbonyl]piperidin-1-ium-1-yl]acetic acid. 1:1 2,2,2-trifluoroacetate] showed an IC90 of 236 nM.
With `Cn1c(-c2cn(-c3ccc4c(ccn4C)n3)nc2C(F)(F)F)cnc1C(=O)Nc1ccc(C(=O)N2CCN(C(=O)[C@H]3CC[N@+](CC(=O)O)(CC4CNC4)CC3)CC2)c(Cl)c1` [Example 39, cis-2-[1-(azetidin-3-ylmethyl)-4-[4-[2-chloro-4-[[1-methyl-5-[1-(1-methylpyrrolo[3,2-b]pyridin-5-yl)-3-(trifluoromethyl)pyrazol-4-yl]imidazole-2-carbonyl]amino]benzoyl]piperazine-1-carbonyl]piperidin-1-ium-1-yl]acetic acid. 1:1 2,2,2-trifluoroacetate] the IC90 was 430 nM.
With `Cn1c(-c2cn(-c3ccc(N)cn3)nc2C(F)(F)F)cnc1C(=O)Nc1ccc(C(=O)N2CCN(C(=O)CC[C@H](N)C(=O)O)CC2)c(Cl)c1` [Example 90, (2S)-2-amino-5-[4-[4-[[5-[1-(5-amino-2-pyridyl)-3-(trifluoromethyl)pyrazol-4-yl]-1-methyl-imidazole-2-carbonyl]amino]-2-chloro-benzoyl]piperazino]-5-keto-valeric acid. 1:1 2,2,2-trifluoroacetic acid] the IC90 was 1520 nM.
`Cn1c(-c2cn(-c3ccc(N)cn3)nc2C(F)(F)F)cnc1C(=O)Nc1ccc(C(=O)N2CCN(C(=O)[C@@H](N)CCCCNCC(=O)O)CC2)c(Cl)c1` [Example 81, 2-[[(5S)-amino-6-[4-[4-[[5-[1-(5-amino-2-pyridyl)-3-(trifluoromethyl)pyrazol-4-yl]-1-methyl-imidazole-2-carbonyl]amino]-2-chloro-benzoyl]piperazino]-6-keto-hexyl]amino]acetic acid. 1:1 2,2,2-trifluoroacetic acid] showed an IC90 of 1210 nM.
`Cn1c(-c2cn(-c3ccc(NCc4ccccn4)cn3)nc2C(F)(F)F)cnc1C(=O)Nc1ccc(C(=O)N2CCN(C(=O)C3CC[N+](CC(=O)O)(CC4CNC4)CC3)CC2)c(Cl)c1` (centres unmarked) [Example 23, 2-[1-(azetidin-3-ylmethyl)-4-[4-[2-chloro-4-[[1-methyl-5-[1-[5-(2-pyridylmethylamino)-2-pyridyl]-3-(trifluoromethyl)pyrazol-4-yl]imidazole-2-carbonyl]amino]benzoyl]piperazine-1-carbonyl]piperidin-1-ium-1-yl]acetic acid. 1:1 2,2,2-trifluoroacetate] was tested, and the IC90 was 340 nM.
Work on `Cn1c(-c2cn(-c3ccc(N)cc3F)nc2C(F)(F)F)cnc1C(=O)Nc1ccc(C(=O)N2CCC(C(=O)N3CC[N+](CCCN)(CC(=O)O)CC3)CC2)c(Cl)c1` [Example 135, 2-[4-[1-[4-[[5-[1-(4-amino-2-fluoro-phenyl)-3-(trifluoromethyl)pyrazol-4-yl]-1-methyl-imidazole-2-carbonyl]amino]-2-chloro-benzoyl]isonipecotoyl]-1-(3-aminopropyl)piperazin-1-ium-1-yl]acetic acid. 1:1 2,2,2-trifluoroacetate] yielded an IC90 of 393 nM.
